From PubChem BioAssay AID248 (DTP/NCI, 2004)
“And” between values parts separate entries of the source, which are not always exact repeats. Equal entries are not always repeated. Toxic doses and inconclusive results are not listed. No stated cut-off is given here; in the data, active means T/C of 150% or more; inactive means T/C below 125%.

Test system: L1210 leukemia ip in BDF1 mice, survival T/C
Assay: NCI In Vivo Anticancer Drug Screen. Data for tumor model L1210 Leukemia (intraperitoneal) in B6D2F1 (BDF1) mice
Settings: endpoint: mean survival time, higher = longer survival
How it was run: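 Ratio derived from survival: compound-dosed mice over vehicle-dosed mice, all bearing a transplantable tumor.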

[1] = dose: 25.0 mg/kg/injection, schedule: Q04DX002 (ip), vehicle: Klucel (hydroxypropylcellulose) (HPC)
[2] = dose: 50.0 mg/kg/injection, schedule: Q04DX002 (ip), vehicle: Klucel (hydroxypropylcellulose) (HPC)
[3] = dose: 100.0 mg/kg/injection, schedule: Q04DX002 (ip), vehicle: Klucel (hydroxypropylcellulose) (HPC)
[4] = dose: 100.0 mg/kg/injection, schedule: Q04DX003 (ip), vehicle: saline
[5] = dose: 200.0 mg/kg/injection, schedule: Q04DX003 (ip), vehicle: saline
[6] = dose: 100.0 mg/kg/injection, schedule: Q04DX002 (ip), vehicle: saline with Tween-80
[7] = dose: 200.0 mg/kg/injection, schedule: Q04DX002 (ip), vehicle: saline with Tween-80
[8] = dose: 400.0 mg/kg/injection, schedule: Q04DX002 (ip), vehicle: saline with Tween-80
[9] = dose: 100.0 mg/kg/injection, schedule: Q01DX009 (ip), vehicle: Klucel (hydroxypropylcellulose) (HPC)
[10] = dose: 100.0 mg/kg/injection, schedule: Q04DX003 (ip), vehicle: Klucel (hydroxypropylcellulose) (HPC)
[11] = dose: 200.0 mg/kg/injection, schedule: Q01DX009 (ip), vehicle: Klucel (hydroxypropylcellulose) (HPC)
[12] = dose: 200.0 mg/kg/injection, schedule: Q04DX003 (ip), vehicle: Klucel (hydroxypropylcellulose) (HPC)
[13] = dose: 400.0 mg/kg/injection, schedule: Q04DX003 (ip), vehicle: Klucel (hydroxypropylcellulose) (HPC)
[14] = dose: 100.0 mg/kg/injection, schedule: Q01DX009 (ip), vehicle: saline with Tween-80
[15] = dose: 100.0 mg/kg/injection, schedule: Q04DX003 (ip), vehicle: saline with Tween-80
[16] = dose: 200.0 mg/kg/injection, schedule: Q01DX009 (ip), vehicle: saline with Tween-80
[17] = dose: 200.0 mg/kg/injection, schedule: Q04DX003 (ip), vehicle: saline with Tween-80
[18] = dose: 400.0 mg/kg/injection, schedule: Q01DX009 (ip), vehicle: saline with Tween-80
[19] = dose: 400.0 mg/kg/injection, schedule: Q04DX003 (ip), vehicle: saline with Tween-80
[20] = dose: 25.0 mg/kg/injection, schedule: Q01DX009 (ip), vehicle: saline with Tween-80
[21] = dose: 50.0 mg/kg/injection, schedule: Q01DX009 (ip), vehicle: saline with Tween-80

Measured: T/C

Cc1ccc(C/C(Cc2ccccc2)=N/O)cc1
inactive: [1] 101 % of control | [2] 111 % of control | [3] 93 % of control | dose: 100.0 mg/kg/injection, schedule: Q04DX002 (ip), vehicle: saline 111 % of control | dose: 200.0 mg/kg/injection, schedule: Q04DX002 (ip), vehicle: Klucel (hydroxypropylcellulose) (HPC) 108 % of control | dose: 200.0 mg/kg/injection, schedule: Q04DX002 (ip), vehicle: saline 97 % of control | dose: 400.0 mg/kg/injection, schedule: Q04DX002 (ip), vehicle: saline 87 % of control

O=C(CCl)N1c2ccccc2Oc2cc3ccccc3cc21
inactive: dose: 100.0 mg/kg/injection, schedule: Q01DX009 (ip), vehicle: saline 100 % of control | [4] 95 % of control | dose: 200.0 mg/kg/injection, schedule: Q01DX009 (ip), vehicle: saline 90 % of control | [5] 101 % of control | dose: 400.0 mg/kg/injection, schedule: Q01DX009 (ip), vehicle: saline 92 % of control | dose: 400.0 mg/kg/injection, schedule: Q04DX003 (ip), vehicle: saline 92 % of control

CN(C)c1ccc(/C=N/NC(=O)c2cnc3ccccc3c2)cc1
inactive: [6] 102 % of control | [7] 97 % of control | [8] 94 % of control

COc1ccc(NC(=O)COc2ccccc2Br)cc1
inactive: [9] 95 % of control | [10] 101 % of control | [11] 97 % of control | [12] 96 % of control | dose: 400.0 mg/kg/injection, schedule: Q01DX009 (ip), vehicle: Klucel (hydroxypropylcellulose) (HPC) 93 % of control | [13] 93 % of control

COc1ccc(C(=O)CCCCl)c(OC)c1
inactive: [14] 95 % of control | [15] 89 % of control | [16] 93 % of control | [17] 96 % of control | [18] 93 % of control | [19] 91 % of control

OC(c1ccccc1)(c1ccccc1)C(O)(c1ccccc1)c1ccccc1
inactive: dose: 12.5 mg/kg/injection, schedule: Q04DX002 (ip), vehicle: Klucel (hydroxypropylcellulose) (HPC) 94 % of control | [1] 97 % of control and 122 % of control | [2] 115 % of control and 91 % of control | [3] 97 % of control | dose: 100.0 mg/kg/injection, schedule: Q04DX002 (ip), vehicle: gum acacia 92 % of control | [6] 102 % of control | [10] 96 % of control | dose: 200.0 mg/kg/injection, schedule: Q04DX002 (ip), vehicle: gum acacia 89 % of control | [7] 99 % of control | [12] 88 % of control | dose: 400.0 mg/kg/injection, schedule: Q04DX002 (ip), vehicle: gum acacia 95 % of control | [8] 99 % of control | [13] 95 % of control

CCC(C)OC(=O)Nc1cccc(OC(=O)N(CC)CC)c1 (centres undefined)
inactive: dose: 100.0 mg/kg/injection, schedule: Q01DX001 (ip), vehicle: saline with Tween-80 103 % of control | dose: 200.0 mg/kg/injection, schedule: Q01DX001 (ip), vehicle: saline with Tween-80 90 % of control | dose: 400.0 mg/kg/injection, schedule: Q01DX001 (ip), vehicle: saline with Tween-80 100 % of control

CC(/C(=N\N=C(N)N)c1ccccc1)N(C)C (centres undefined)
inactive: dose: 15.0 mg/kg/injection, schedule: Q01DX Z (ip), vehicle: methylcellulose (MC) 94 % of control | dose: 30.0 mg/kg/injection, schedule: Q01DX Z (ip), vehicle: methylcellulose (MC) 108 % of control | dose: 50.0 mg/kg/injection, schedule: Q01DX Z (oral), vehicle: methylcellulose (MC) 100 % of control | dose: 60.0 mg/kg/injection, schedule: Q01DX Z (ip), vehicle: methylcellulose (MC) 95 % of control | dose: 100.0 mg/kg/injection, schedule: Q01DX Z (oral), vehicle: methylcellulose (MC) 86 % of control | dose: 120.0 mg/kg/injection, schedule: Q01DX Z (ip), vehicle: methylcellulose (MC) 88 % of control

C=CCNC(=S)Nc1cccc(OC(=O)Nc2ccc(Cl)c(Cl)c2)c1
inactive: [9] 87 % of control | [11] 92 % of control

CCc1ccc(NC(=O)Nc2ccc(OC)cc2)cc1
inactive: dose: 100.0 mg/kg/injection, schedule: Q01DX009 (ip), vehicle: gum acacia 97 % of control | dose: 100.0 mg/kg/injection, schedule: Q04DX003 (ip), vehicle: gum acacia 95 % of control | dose: 200.0 mg/kg/injection, schedule: Q01DX009 (ip), vehicle: gum acacia 92 % of control | dose: 200.0 mg/kg/injection, schedule: Q04DX003 (ip), vehicle: gum acacia 92 % of control | dose: 400.0 mg/kg/injection, schedule: Q01DX009 (ip), vehicle: gum acacia 91 % of control | dose: 400.0 mg/kg/injection, schedule: Q04DX003 (ip), vehicle: gum acacia 94 % of control

CC(C)(O)C(C)(O)c1ccc(Cl)cc1 (centres undefined)
inactive: [20] 93 % of control | dose: 25.0 mg/kg/injection, schedule: Q04DX003 (ip), vehicle: Klucel (hydroxypropylcellulose) (HPC) 101 % of control | [21] 102 % of control | dose: 50.0 mg/kg/injection, schedule: Q04DX003 (ip), vehicle: Klucel (hydroxypropylcellulose) (HPC) 101 % of control | [14] 98 % of control | [10] 101 % of control | [16] 104 % of control | [12] 106 % of control | [18] 94 % of control | [13] 95 % of control

Nc1cc(Cl)ccc1Nc1ccccc1
inactive: dose: 50.0 mg/kg/injection, schedule: Q01DX001 (ip), vehicle: carboxymethylcellulose (CMC) 101 % of control | dose: 100.0 mg/kg/injection, schedule: Q01DX001 (ip), vehicle: carboxymethylcellulose (CMC) 109 % of control | dose: 200.0 mg/kg/injection, schedule: Q01DX001 (ip), vehicle: carboxymethylcellulose (CMC) 101 % of control | dose: 400.0 mg/kg/injection, schedule: Q01DX001 (ip), vehicle: carboxymethylcellulose (CMC) 101 % of control

Cc1cc([N+](=O)[O-])c2ccccc2[n+]1[O-]
inactive: [20] 96 % of control

O=C1C=C2CCN(Cc3ccccc3)CC2CC1 (centres undefined)
inactive: dose: 100.0 mg/kg/injection, schedule: Q01DX001 (ip), vehicle: acetone 97 % of control | [4] 104 % of control | dose: 200.0 mg/kg/injection, schedule: Q01DX001 (ip), vehicle: acetone 102 % of control | [5] 101 % of control | dose: 400.0 mg/kg/injection, schedule: Q01DX001 (ip), vehicle: acetone 98 % of control

COc1cc(/C=N/O)ccc1O
inactive: [21] 97 % of control and 105 % of control | [14] 97 % of control and 102 % of control | [15] 96 % of control | [16] 107 % of control and 112 % of control | [17] 87 % of control | [19] 91 % of control
